Measured values published in patent US10800752B2, “Substituted naphtho[2,3-b]furans as water-soluble prodrugs for preventing and/or treating cancer” (BOSTON BIOMEDICAL, INC., priority 2015, dated 2020).
Structures can show the parent of a compound that is named as a salt.

Columns and labels:
Solubility test = details: for solubility at 24 hours: pH 2, aqueous buffer, thermodynamic from solid; for solubility (in words): pH 2.0 buffer solution
[1] = Evaluation of a conversion rate to 2-acetylnaphtho[2,3-b]furan-4,9-dione in pH 7.4 phosphate buffer solution; assay type: physicochemical
Method: For test compounds, the decrease rate of the test compounds and the conversion rate thereof to 2-acetylnaphtho[2,3-b]furan-4,9-dione in human plasma, CD1 mouse plasma, and pH 7.4 phosphate buffer solution were measured.
Test compounds were incubated at the concentration of 1 umol/L in human plasma (cat. no. 12250210, COSMO BIO), CD1 mouse plasma (cat. no. AP3054, KAC), and phosphate buffer solution at 37° C., and removed at predetermined times (0, 5, 10, 30, 60, and 120 minutes). After protein-removing treatment was performed, they are analyzed with LC-MS. It should be noted that the protein-removing treatment used acetonitrile containing: 10% volume of 1 mol/L hydrochloric acid; 1% volume of 46% citric acid; and phenytoin as an internal standard.
The measurement condition of LC-MS is as described below. LC-MS condition column: Kinetex 2.6 u PFP 100 A 50×2.1 mm Column temperature: 40° C.
Mobile phase: A: 0.1% formic acid-containing water
• B: 0.1% formic acid-containing acetonitrile A/B(min): 95/5(0)→5/95(3)→5/95(4)→95/5(4.1)→95/5(6) Flow rate: 0.4 mL/min Detection: ESI (positive mode) Injection volume: 10 uL
Measurement values are calculated from the peak area ratio in LC-MS between an internal standard material, phenytoin and an active form, 2-acetylnaphtho[2,3-b]furan-4,9-dione, and are expressed in %.
In the same way as Example 6, the incubation time was set as 120 minutes later, and the conversion rate of each of various test compounds to 2-acetylnaphtho[2,3-b]furan-4,9-dione in human plasma, CD1 mouse plasma, and pH 7.4 phosphate buffer solution was measured. A series of the present compounds were confirmed to be converted to 2-acetylnaphtho[2,3-b]furan-4,9-dione in pH 7.4 phosphate buffer solution in addition to human plasma and CD1 mouse plasma. Therefore, a series of the test compounds of the present invention were confirmed to be converted to the activated form via a route other than an enzymatic conversion.

[2] = Phosphate buffer solution (pH 7.4), 1 umol/L, 37° C., incubation time 120 min
[3] = Phosphate buffer solution (pH 7.4), 1 umol/L, 37° C., incubation time 120 min, dimethanesulfonate salt monohydrate
[4] = Phosphate buffer solution (pH 7.4), 1 umol/L, 37° C., incubation time 120 min, monohydrate
[5] = Phosphate buffer solution (pH 7.4), 1 umol/L, 37° C., incubation time 120 min, monosulfate salt monohydrate
[6] = Phosphate buffer solution (pH 7.4), 1 umol/L, 37° C., incubation time 120 min, trifluoroacetate salt monohydrate

SMILES: CC(=O)c1cc2c(OC(=O)C(C)(C)C)c3ccccc3c(OC(=O)C(C)(C)C)c2o1 [2-acetylnaphtho[2,3-b]furan-4,9-diyl bis(2,2-dimethylpropanoate), reference compound]
- solubility at 24 hours (Solubility test; glycine buffer solution): < 0.1 µg/mL
- solubility (in words) (Solubility test): very low solubility

SMILES: CCCCCCCC(=O)Oc1c2ccccc2c(OC(=O)CCCCCCC)c2oc(C(C)=O)cc12 [2-acetylnaphtho[2,3-b]furan-4,9-diyl dioctanoate, reference compound]
- solubility at 24 hours (Solubility test; glycine buffer solution): < 0.1 µg/mL
- solubility (in words) (Solubility test): very low solubility

SMILES: CC(=O)c1cc2c(OC(=O)NCCCN)c3ccccc3c(OC(=O)NCCCN)c2o1 [Example 1, 2-Acetylnaphtho[2,3-b]furan-4,9-diyl bis((3-aminopropyl)carbamate)dihydrochloride]
- % Measurement value (conversion rate to 2-acetylnaphtho[2,3-b]furan-4,9-dione) [1, 2]: 79%

SMILES: CC(=O)c1cc2c(OC(=O)NCCN)c3ccccc3c(OC(=O)NCCN)c2o1 [Example 2, 2-Acetylnaphtho[2,3-b]furan-4,9-diyl bis((2-aminoethyl)carbamate)dihydrochloride]
- % Measurement value (conversion rate to 2-acetylnaphtho[2,3-b]furan-4,9-dione) [1, 2]: 59%

SMILES: CN[C@@H](CCNC(=O)Oc1c2ccccc2c(OC(=O)NCC[C@@H](NC)C(=O)O)c2cc(C(C)=O)oc12)C(=O)O [Example 3, (S)-4-((((2-Acetyl-4-((((R)-3-carboxy-3-(methylamino)propyl)carbamoyl)oxy)naphtho[2,3-b]furan-9-yl)oxy)carbonyl)amino)-2-(methylamino)butanoic acid dihydrochloride]
- % Measurement value (conversion rate to 2-acetylnaphtho[2,3-b]furan-4,9-dione) [1, 2]: 40%

SMILES: CC(=O)c1cc2c(OC(=O)NCCCN)c3ccccc3c(O)c2o1.Cl [Example 15, 2-Acetyl-9-hydroxynaphtho[2,3-b]furan-4-yl (3-aminopropyl)carbamate hydrochloride]
- % Measurement value (conversion rate to 2-acetylnaphtho[2,3-b]furan-4,9-dione) [1, 2]: 100%

SMILES: CC(=O)c1cc2c(OC(=O)NCCNCCC(=O)O)c3ccccc3c(O)c2o1 [Example 17, 3-((2-((((2-Acetyl-9-hydroxynaphtho[2,3-b]furan-4-yl)oxy)carbonyl)amino)ethyl)amino)prop ionic acid hydrochloride]
- % Measurement value (conversion rate to 2-acetylnaphtho[2,3-b]furan-4,9-dione) [1, 2]: 80%

SMILES: CC(=O)c1cc2c(O)c3ccccc3c(OC(=O)NCCCN)c2o1.Cl [Example 20, 2-Acetyl-4-hydroxynaphtho[2,3-b]furan-9-yl (3-aminopropyl)carbamate hydrochloride]
- % Measurement value (conversion rate to 2-acetylnaphtho[2,3-b]furan-4,9-dione) [1, 2]: 57%

SMILES: CC(=O)c1cc2c(OC(=O)NCCNCC(F)F)c3ccccc3c(OC(=O)NCCNCC(F)F)c2o1.Cl.Cl [Example 44]
- % Measurement value (conversion rate to 2-acetylnaphtho[2,3-b]furan-4,9-dione) ([1]; pH 7.4): 48%

SMILES: CC(=O)c1cc2c(OC(=O)NCCNCC(=O)O)c3ccccc3c(OC(=O)NCCNCC(=O)O)c2o1 [Example 93, 2,2′-((((((2-acetylnaphtho[2,3-b]furan-4,9-diyl)bis(oxy))bis(carbonyl))bis(azanediyl))bis(ethane-2,1-diyl))bis(azanediyl))diacetic acid monohydrochloride dihydrate]
- % Measurement value (conversion rate to 2-acetylnaphtho[2,3-b]furan-4,9-dione) ([1]; Phosphate buffer solution (pH 7.4), 1 umol/L, 37° C., incubation time 120 min, monohydrochloride dihydrate): 72%

SMILES: CC(=O)c1cc2c(OC(=O)NCCNCC(=O)O)c3ccccc3c(OC(=O)NCCNCC(=O)O)c2o1 [Example 94, 2,2′-((((((2-acetylnaphtho[2,3-b]furan-4,9-diyl)bis(oxy))bis(carbonyl))bis-(azanediyl))bis(ethane-2,1-diyl))bis(azanediyl))diacetic acid dimethanesulfonate salt monohydrate]
- % Measurement value (conversion rate to 2-acetylnaphtho[2,3-b]furan-4,9-dione) [1, 3]: 53%

SMILES: CC(=O)c1cc2c(OC(=O)NCCNCC(=O)O)c3ccccc3c(OC(=O)NCCNCC(=O)O)c2o1 [Example 95, 2,2′-((((((2-acetylnaphtho[2,3-b]furan-4,9-diyl)bis(oxy))bis(carbonyl))bis(azanediyl))bis(ethane-2,1-diyl))bis(azanediyl))diacetic acid ditoluenesulfonate salt monohydrate]
- % Measurement value (conversion rate to 2-acetylnaphtho[2,3-b]furan-4,9-dione) [1, 4]: 54%

SMILES: CC(=O)c1cc2c(OC(=O)NCCNCC(=O)O)c3ccccc3c(OC(=O)NCCNCC(=O)O)c2o1 [Example 97, 2,2′-((((((2-acetylnaphtho[2,3-b]furan-4,9-diyl)bis(oxy))bis(carbonyl))bis-(azanediyl))bis(ethane-2,1-diyl))bis(azanediyl))diacetic acid monosulfate salt monohydrate]
- % Measurement value (conversion rate to 2-acetylnaphtho[2,3-b]furan-4,9-dione) [1, 5]: 61%

SMILES: CC(=O)c1cc2c(OC(=O)NCCNCC(=O)O)c3ccccc3c(OC(=O)NCCNCC(=O)O)c2o1 [Example 98, 2,2′-((((((2-acetylnaphtho[2,3-b]furan-4,9-diyl)bis(oxy))bis(carbonyl))bis(azanediyl))bis(ethane-2,1-diyl))bis(azanediyl))diacetic acid 1/3 trifluoroacetate salt monohydrate]
- % Measurement value (conversion rate to 2-acetylnaphtho[2,3-b]furan-4,9-dione) [1, 6]: 66%
- solubility at 24 hours (Solubility test): > 5000 µg/mL

SMILES: CC(=O)c1cc2c(OC(=O)NCCNCCC(=O)O)c3ccccc3c(OC(=O)NCCNCCC(=O)O)c2o1 [Example 99, 3,3′-((((((2-acetylnaphtho[2,3-b]furan-4,9-diyl)bis(oxy))bis(carbonyl))bis(azanediyl))bis(ethane-2,1-diyl))bis(azanediyl))dipropionic acid dimethanesulfonate salt monohydrate]
- % Measurement value (conversion rate to 2-acetylnaphtho[2,3-b]furan-4,9-dione) [1, 3]: 60%

SMILES: CC(=O)c1cc2c(OC(=O)NCCNCCC(=O)O)c3ccccc3c(OC(=O)NCCNCCC(=O)O)c2o1 [Example 100, 3,3′-((((((2-acetylnaphtho[2,3-b]furan-4,9-diyl)bis(oxy))bis(carbonyl))bis(azanediyl))bis(ethane-2,1-diyl))bis(azanediyl))dipropionic acid ditoluenesulfonate salt monohydrate]
- % Measurement value (conversion rate to 2-acetylnaphtho[2,3-b]furan-4,9-dione) [1, 4]: 76%

SMILES: CC(=O)c1cc2c(OC(=O)NCCNCCC(=O)O)c3ccccc3c(OC(=O)NCCNCCC(=O)O)c2o1 [Example 101, 3,3′-((((((2-acetylnaphtho[2,3-b]furan-4,9-diyl)bis(oxy))bis(carbonyl))bis(azanediyl))bis(ethane-2,1-diyl))bis(azanediyl))dipropionic acid dibenzenesulfonate salt]
- % Measurement value (conversion rate to 2-acetylnaphtho[2,3-b]furan-4,9-dione) ([1]; Phosphate buffer solution (pH 7.4), 1 umol/L, 37° C., incubation time 120 min, dibenzenesulfonate salt): 56%

SMILES: CC(=O)c1cc2c(OC(=O)NCCNCCC(=O)O)c3ccccc3c(OC(=O)NCCNCCC(=O)O)c2o1 [Example 102, 3,3′-((((((2-acetylnaphtho[2,3-b]furan-4,9-diyl)bis(oxy))bis(carbonyl))bis-(azanediyl))bis(ethane-2,1-diyl))bis(azanediyl))dipropionic acid monosulfate salt monohydrate]
- % Measurement value (conversion rate to 2-acetylnaphtho[2,3-b]furan-4,9-dione) [1, 5]: 59%

SMILES: CC(=O)c1cc2c(OC(=O)NCCNCCC(=O)O)c3ccccc3c(OC(=O)NCCNCCC(=O)O)c2o1 [Example 103, 3,3′-((((((2-acetylnaphtho[2,3-b]furan-4,9-diyl)bis(oxy))bis(carbonyl))bis(azanediyl))bis(ethane-2,1-diyl))bis(azanediyl))dipropionic acid 1/3 trifluoroacetate salt monohydrate]
- % Measurement value (conversion rate to 2-acetylnaphtho[2,3-b]furan-4,9-dione) [1, 6]: 53%

SMILES: COC(=O)[C@@H](N)CCNC(=O)Oc1c2ccccc2c(OC(=O)NCC[C@H](N)C(=O)OC)c2oc(C(C)=O)cc12 [Example 105, Dimethyl 4,4′-((((2-acetylnaphtho[2,3-b]furan-4,9-diyl)bis(oxy))bis(carbonyl))bis(azanediyl))(2S,2′S)-bis(2-aminobutanoate)ditoluenesulfonate salt monohydrate]
- % Measurement value (conversion rate to 2-acetylnaphtho[2,3-b]furan-4,9-dione) [1, 4]: 65%
- solubility at 24 hours (Solubility test): > 5000 µg/mL

SMILES: COC(=O)[C@@H](N)CCNC(=O)Oc1c2ccccc2c(OC(=O)NCC[C@H](N)C(=O)OC)c2oc(C(C)=O)cc12 [Example 106, Dimethyl 4,4′-((((2-acetylnaphtho[2,3-b]furan-4,9-diyl)bis(oxy))bis(carbonyl))bis(azanediyl))(2S,2′S)-bis(2-aminobutanoate)dibenzenesulfonate salt]
- % Measurement value (conversion rate to 2-acetylnaphtho[2,3-b]furan-4,9-dione) [1, 2]: 55%
- Solubility in pH 2.0 buffer solution (Solubility test; 50 mmol/L glycine buffer solution (pH 2.0), room temperature, 24 hours shaking): >5.0 mg/mL

SMILES: COC(=O)[C@@H](N)CCNC(=O)Oc1c2ccccc2c(OC(=O)NCC[C@H](N)C(=O)OC)c2oc(C(C)=O)cc12 [Example 107, Dimethyl 4,4′-((((2-acetylnaphtho[2,3-b]furan-4,9-diyl)bis(oxy))bis(carbonyl))bis(azanediyl))(2S,2′S)-bis(2-aminobutanoate) monosulfate salt monohydrate]
- % Measurement value (conversion rate to 2-acetylnaphtho[2,3-b]furan-4,9-dione) [1, 5]: 50%
